Measured values published in patent US9695198B2, “Factor IXa inhibitors” (MERCK SHARP & DOHME CORP., priority 2012, dated 2017).
pIC50: −log10 of the molar value.

Target: Factor IXa (Homo sapiens, UniProt P00740)
Experiment: Determination of inhibitory activity against Factor IXa (cleavage of fluorescent peptide CH3SO2-D-CHG-Gly-Arg-AFC)
Type: biochemical
Details: Factor IXa Inhibition table; low enzyme format; read-out: FIXa Low Enzyme
Experimental: Determination of Inhibitory Activity Against Factor IXa
Formation of a clot to stem bleeding at a site of blood vessel injury involves the coordinated activity of a group of plasma proteins that initiate and propagate fibrin formation and subsequently protect fibrin from premature degradation. Factor IX is a key component of the plasma system that forms a fibrin clot at a site of vascular injury. The activity of Factor IXa is measured by monitoring the cleavage of the fluorescent peptide, CH3SO2-D-CHG-Gly-Arg-AFC.AcOH (“CHG” is cyclohexyl-glycine and “AFC” is trifluoro aminomethyl coumarin). Factor IXa cleaves the amide bond between Arg and AFC, thereby releasing the AFC fluorophore. The free AFC can be detected with a fluorescence detector at an excitation wavelength of 405 nm and emission wavelength of 510 nm.

Factor IXa, sequence (P00740 227-461 limits assumed): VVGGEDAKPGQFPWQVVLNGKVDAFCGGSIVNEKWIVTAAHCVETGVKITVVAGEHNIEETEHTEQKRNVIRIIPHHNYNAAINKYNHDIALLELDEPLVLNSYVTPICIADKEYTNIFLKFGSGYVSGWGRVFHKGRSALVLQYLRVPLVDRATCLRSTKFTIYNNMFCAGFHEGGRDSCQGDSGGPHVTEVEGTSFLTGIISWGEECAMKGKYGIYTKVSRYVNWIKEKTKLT
Factor IXa, sequence (P00740 47-191 partner limits assumed): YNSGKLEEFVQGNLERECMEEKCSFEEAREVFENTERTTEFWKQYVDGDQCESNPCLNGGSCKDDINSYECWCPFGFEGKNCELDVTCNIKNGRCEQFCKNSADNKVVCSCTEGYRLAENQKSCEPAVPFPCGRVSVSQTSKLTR

SMILES	pIC50
Nc1noc2c1ccc1[nH]c([C@H](O)[C@H]3OCCN(c4ccn(-c5ccncc5)n4)C3=O)nc(=O)c12 [Example 1, 3-Amino-7-((S)-hydroxy((R)-3-oxo-4-(1-(pyridin-4-yl)-1H-pyrazol-3-yl)morpholin-2-yl)methyl)isoxazolo[5,4-f]quinazolin-9(6H)-one]	7.84
Cc1cc(N2CCO[C@H]([C@@H](O)c3nc(=O)c4c(ccc5c(N)nsc54)[nH]3)C2=O)nn1-c1ccncc1 [Example 3, (R)-2-((S)-(3-Amino-9-oxo-6,9-dihydroisothiazolo[5,4-f]quinazolin-7-yl)(hydroxy)methyl)-4-(5-methyl-1-(pyridin-4-yl)-1H-pyrazol-3-yl)morpholin-3-one]	7.95
Cc1cc(N2CCO[C@H]([C@@H](O)c3nc(=O)c4c(ccc5c(N)nsc54)[nH]3)C2=O)nn1-c1cccnc1 [Example 4, (R)-2-((S)-(3-Amino-9-oxo-6,9-dihydroisothiazolo[5,4-f]quinazolin-7-yl)(hydroxy)methyl)-4-(5-methyl-1-(pyridin-3-yl)-1H-pyrazol-3-yl)morpholin-3-one]	7.23
COc1cc(-n2nc(N3CCO[C@H]([C@@H](O)c4nc(=O)c5c(ccc6c(N)nsc65)[nH]4)C3=O)cc2C)ccn1 [Example 6, (R)-2-((S)-(3-Amino-9-oxo-6,9-dihydroisothiazolo[5,4-f]quinazolin-7-yl)(hydroxy)methyl)-4-(1-(2-methoxypyridin-4-yl)-5-methyl-1H-pyrazol-3-yl)morpholin-3-one]	7.24
Nc1nsc2c1ccc1[nH]c([C@H](O)[C@H]3OCCN(c4ccn(-c5ccnc(C(F)(F)F)c5)n4)C3=O)nc(=O)c12 [Example 7, (R)-2-((S)-(3-Amino-9-oxo-6,9-dihydroisothiazolo[5,4-f]quinazolin-7-yl)(hydroxy)methyl)-4-(1-(2-(trifluoromethyl)pyridin-4-yl)-1H-pyrazol-3-yl)morpholin-3-one]	8.03
Cc1cc(N2CCO[C@H]([C@@H](O)c3nc(=O)c4c(ccc5c(N)nsc54)[nH]3)C2=O)nn1-c1ccnc(C(F)(F)F)c1 [Example 8, (R)-2-((S)-(3-Amino-9-oxo-6,9-dihydroisothiazolo[5,4-f]quinazolin-7-yl)(hydroxy)methyl)-4-(5-methyl-1-(2-(trifluoromethyl)pyridin-4-yl)-1H-pyrazol-3-yl)morpholin-3-one]	7.75
Nc1nsc2c1ccc1[nH]c([C@H](O)[C@H]3OCCN(c4ccn(-c5ccc(=O)n(C(F)F)c5)n4)C3=O)nc(=O)c12 [Example 10, (R)-2-((S)-(3-Amino-9-oxo-6,9-dihydroisothiazolo[5,4-f]quinazolin-7-yl)(hydroxy)methyl)-4-(1-(1-(difluoromethyl)-6-oxo-1,6-dihydropyridin-3-yl)-1H-pyrazol-3-yl)morpholin-3-one]	8.52
Cc1cc(N2CCO[C@H]([C@@H](O)c3nc(=O)c4c(ccc5c(N)nsc54)[nH]3)C2=O)nn1-c1ccc(F)cc1 [Example 11, (R)-2-((S)-(3-Amino-9-oxo-6,9-dihydroisothiazolo[5,4-f]quinazolin-7-yl)(hydroxy)methyl)-4-(1-(4-fluorophenyl)-5-methyl-1H-pyrazol-3-yl)morpholin-3-one]	7.28
N#Cc1ccc(-n2ccc(N3CCO[C@H]([C@@H](O)c4nc(=O)c5c(ccc6c(N)nsc65)[nH]4)C3=O)n2)cc1C(F)(F)F [Example 13, 4-(3-((R)-2-((S)-(3-Amino-9-oxo-6,9-dihydroisothiazolo[5,4-f]quinazolin-7-yl)(hydroxy)methyl)-3-oxomorpholino)-1H-pyrazol-1-yl)-2-(trifluoromethyl)benzonitrile]	7.55
Nc1nsc2c1ccc1[nH]c([C@H](O)[C@H]3OCCN(c4cccc(C(F)(F)F)n4)C3=O)nc(=O)c12 [Example 17, (R)-2-((S)-(3-Amino-9-oxo-6,9-dihydroisothiazolo[5,4-f]quinazolin-7-yl)(hydroxy)methyl)-4-(6-(trifluoromethyl)pyridin-2-yl)morpholin-3-one]	7.36
Nc1nsc2c1ccc1[nH]c([C@H](O)[C@H]3OCCN(c4nc(C(F)(F)F)ccc4F)C3=O)nc(=O)c12 [Example 18, (R)-2-((S)-(3-Amino-9-oxo-6,9-dihydroisothiazolo[5,4-f]quinazolin-7-yl)(hydroxy)methyl)-4-(3-fluoro-6-(trifluoromethyl)pyridin-2-yl)morpholin-3-one]	7.35
Nc1nsc2c1ccc1[nH]c([C@H](O)[C@H]3OCCN(c4cccc(OC(F)F)n4)C3=O)nc(=O)c12 [Example 19, (R)-2-((S)-(3-Amino-9-oxo-6,9-dihydroisothiazolo[5,4-f]quinazolin-7-yl)(hydroxy)methyl)-4-(6-(difluoromethoxy)pyridin-2-yl)morpholin-3-one]	7.08
CC(C)(O)c1cccc(N2CCO[C@H]([C@@H](O)c3nc(=O)c4c(ccc5c(N)nsc54)[nH]3)C2=O)n1 [Example 21, (R)-2-((S)-(3-Amino-9-oxo-6,9-dihydroisothiazolo[5,4-f]quinazolin-7-yl)(hydroxy)methyl)-4-(6-(2-hydroxypropan-2-yl)pyridin-2-yl)morpholin-3-one]	7.91
CC(C)(O)c1nc(N2CCO[C@H]([C@@H](O)c3nc(=O)c4c(ccc5c(N)nsc54)[nH]3)C2=O)ccc1C(F)(F)F [Example 22, (R)-2-((S)-(3-Amino-9-oxo-6,9-dihydroisothiazolo[5,4-f]quinazolin-7-yl)(hydroxy)methyl)-4-(6-(2-hydroxypropan-2-yl)-5-(trifluoromethyl)pyridin-2-yl)morpholin-3-one]	7.59
CC(=O)OC1(c2cccc(N3CCO[C@H]([C@@H](O)c4nc(=O)c5c(ccc6c(N)nsc65)[nH]4)C3=O)n2)CCC1 [Example 23, 1-(6-((R)-2-((S)-(3-Amino-9-oxo-6,9-dihydroisothiazolo[5,4-f]quinazolin-7-yl)(hydroxy)methyl)-3-oxomorpholino)pyridin-2-yl)cyclobutyl acetate]	7.50
Nc1nsc2c1ccc1[nH]c([C@H](O)[C@H]3OCCN(c4cccc(C(O)C(F)(F)F)n4)C3=O)nc(=O)c12 (stereo partly drawn) [Example 25, (2R)-2-((S)-(3-Amino-9-oxo-6,9-dihydroisothiazolo[5,4-f]quinazolin-7-yl)(hydroxy)methyl)-4-(6-(2,2,2-trifluoro-1-hydroxyethyl)pyridin-2-yl)morpholin-3-one]	7.93

More lines, now with the values ahead:

pIC50	SMILES
8.33	Nc1nsc2c1ccc1[nH]c([C@H](O)[C@H]3OCCN(c4ccn(-c5ccncc5)n4)C3=O)nc(=O)c12 [Example 2, (R)-2-((S)-(3-Amino-9-oxo-6,9-dihydroisothiazolo[5,4-f]quinazolin-7-yl)(hydroxy)methyl)-4-(1-(pyridin-4-yl)-1H-pyrazol-3-yl)morpholin-3-one]
7.97	COc1cc(-n2ccc(N3CCO[C@H]([C@@H](O)c4nc(=O)c5c(ccc6c(N)nsc65)[nH]4)C3=O)n2)ccn1 [Example 5, (R)-2-((S)-(3-Amino-9-oxo-6,9-dihydroisothiazolo[5,4-f]quinazolin-7-yl)(hydroxy)methyl)-4-(1-(2-methoxypyridin-4-yl)-1H-pyrazol-3-yl)morpholin-3-one]
8.73	Nc1nsc2c1ccc1[nH]c([C@H](O)[C@H]3OCCN(c4ccn(-c5ccnnc5)n4)C3=O)nc(=O)c12 [Example 9, (R)-2-((S)-(3-Amino-9-oxo-6,9-dihydroisothiazolo[5,4-f]quinazolin-7-yl)(hydroxy)methyl)-4-(1-(pyridazin-4-yl)-1H-pyrazol-3-yl)morpholin-3-one]
8.51	N#Cc1ccc(-n2ccc(N3CCO[C@H]([C@@H](O)c4nc(=O)c5c(ccc6c(N)nsc65)[nH]4)C3=O)n2)cc1 [Example 12, 4-(3-((R)-2-((S)-(3-Amino-9-oxo-6,9-dihydroisothiazolo[5,4-f]quinazolin-7-yl)(hydroxy)methyl)-3-oxomorpholino)-1H-pyrazol-1-yl)benzonitrile]
7.36	Cc1cc(N2CCO[C@H]([C@@H](O)c3nc(=O)c4c(ccc5c(N)nsc54)[nH]3)C2=O)nn1C [Example 14, (R)-2-((S)-(3-Amino-9-oxo-6,9-dihydroisothiazolo[5,4-f]quinazolin-7-yl)(hydroxy)methyl)-4-(1,5-dimethyl-1H-pyrazol-3-yl)morpholin-3-one]
7.40	Nc1nsc2c1ccc1[nH]c([C@H](O)[C@H]3OCCN(c4ccn(C5CC5)n4)C3=O)nc(=O)c12 [Example 15, (R)-2-((S)-(3-Amino-9-oxo-6,9-dihydroisothiazolo[5,4-f]quinazolin-7-yl)(hydroxy)methyl)-4-(1-cyclopropyl-1H-pyrazol-3-yl)morpholin-3-one]
7.50	Cc1cc(N2CCO[C@H]([C@@H](O)c3nc(=O)c4c(ccc5c(N)nsc54)[nH]3)C2=O)nn1C1CCOCC1 [Example 16, (R)-2-((S)-(3-Amino-9-oxo-6,9-dihydroisothiazolo[5,4-f]quinazolin-7-yl)(hydroxy)methyl)-4-(5-methyl-1-(tetrahydro-2H-pyran-4-yl)-1H-pyrazol-3-yl)morpholin-3-one]
7.05	Nc1nsc2c1ccc1[nH]c([C@H](O)[C@H]3OCCN(c4cccc(C5CC5)n4)C3=O)nc(=O)c12 [Example 20, (R)-2-((S)-(3-Amino-9-oxo-6,9-dihydroisothiazolo[5,4-f]quinazolin-7-yl)(hydroxy)methyl)-4-(6-cyclopropylpyridin-2-yl)morpholin-3-one]
7.61	Nc1nsc2c1ccc1[nH]c([C@H](O)[C@H]3OCCN(c4cccc(C5(O)CCC5)n4)C3=O)nc(=O)c12 [Example 24, (R)-2-((S)-(3-Amino-9-oxo-6,9-dihydroisothiazolo[5,4-f]quinazolin-7-yl)(hydroxy)methyl)-4-(6-(1-hydroxycyclobutyl)pyridin-2-yl)morpholin-3-one]
